In article PMC2747801 (European journal of pharmaceutical sciences : official …, 2009):
Read-outs that look alike come from different tables or passages of the source.

Columns and labels:
[1] = cited from earlier work
[2] = male, mouse, pH 7.4; for logPS(obs): in vivo
[3] = cited from earlier work; remark: listed apart in the source
[4] = cited from earlier work; remark: listed apart in the source
[5] = rat, test set ref Gratton et al. 1997
[6] = rat, 5-50uM self-inhibition, training set ref Summerfield et al. 2007
[7] = PAMPA intrinsic permeability, ref Ruell et al. 2004
[8] = rat, 5-50uM self-inhibition, test set ref Summerfield et al. 2007
[9] = rat, Kd (nonsaturable component) ref Momma et al. 1987
[10] = rat, PSC833,GF120918 ref Youdim et al. 2004
[11] = rat, not saturable ref Parepally et al. 2006
[12] = rat, Kd (nonsaturable component) ref Smith et al. 1986

SMILES: OC[C@@H](O)[C@@H](O)[C@H](O)[C@H](O)CO [mannitol]
- logPS(obs) [1, 5]: −5.01 mL/g/s

SMILES: O=c1[nH]c2ccccc2n1CCCN1CCC(n2c(=O)[nH]c3cc(Cl)ccc32)CC1 [domperidone]
- logPS(obs) [2]: −2.79 mL/g/s
- logPo^PAMPA: −2.78

SMILES: CN1C[C@H](C(=O)N[C@]2(C)O[C@@]3(O)[C@@H]4CCCN4C(=O)[C@H](Cc4ccccc4)N3C2=O)C=C2c3cccc4[nH]cc(c34)C[C@H]21 [ergotamine]
- logPS(obs) ([1]; rat, in vivo): −2.06 mL/g/s

SMILES: CCC(=O)C(CC(C)N(C)C)(c1ccccc1)c1ccccc1 (stereo not drawn) [methadone]
- logPo^PAMPA: 0.08

SMILES: Cc1ccsc1C(=CCCN1CCC[C@@H](C(=O)O)C1)c1sccc1C [tiagabine]
- logPS(obs) [1, 6]: −2.46 mL/g/s

SMILES: CN(C)CCC=C1c2ccccc2COc2ccccc21 [doxepin]
- logPo^PAMPA [3, 7]: 0.44
- logPS(obs) [1, 6]: −1.31 mL/g/s

SMILES: COc1cc2c(c(OC)c1OC)-c1ccc(OC)c(=O)cc1[C@@H](NC(C)=O)CC2 [colchicine]
- logPo^PAMPA: −5.40
- logPS(obs) ([1]; rat, in vivo): −3.24 mL/g/s

SMILES: CC(C)Cc1ccc(C(C)C(=O)O)cc1 (stereo not drawn) [ibuprofen]
- logPo^PAMPA ([3]; PAMPA intrinsic permeability, ref Ruell et al. 2004, Ruell et al. 2003): −2.11

SMILES: CC(C)[C@H](NC(=O)[C@H](CCC(=O)O)NC(=O)[C@H](Cc1ccccc1)NC(=O)[C@@H](C)NC(=O)[C@@H](N)Cc1ccc(O)cc1)C(=O)N[C@H](C(=O)NCC(N)=O)C(C)C [deltorphin II]
- logPo^PAMPA: −6.37
- logPS(obs) ([4]; mouse, in vivo): −4.36 mL/g/s

SMILES: OCCN1CCN(CCCN2c3ccccc3Sc3ccc(C(F)(F)F)cc32)CC1 [fluphenazine]
- logPS(obs) [1, 8]: −1.87 mL/g/s

SMILES: OC[C@H]1O[C@@](CO)(O[C@H]2O[C@H](CO)[C@@H](O)[C@H](O)[C@H]2O)[C@@H](O)[C@@H]1O [sucrose]
- logPS(obs) [1, 5]: −5.30 mL/g/s

SMILES: CC(C)c1nc(CN(C)C(=O)N[C@H](C(=O)N[C@@H](Cc2ccccc2)C[C@H](O)[C@H](Cc2ccccc2)NC(=O)OCc2cncs2)C(C)C)cs1 [ritonavir]
- logPS(obs) [2]: −2.59 mL/g/s
- Pgp Mutant Kin [2]: 15 mL/100g/min
- logPo^PAMPA: −1.68

SMILES: CCN(C(C)=O)c1cccc(-c2ccnc3c(C#N)cnn23)c1 [zaleplon]
- logPS(obs) ([1]; rat, in vivo): −2.25 mL/g/s

SMILES: Cc1c(N2C[C@@H](N)C3(CC3)C2)c(F)c(N)c2c(=O)c(C(=O)O)cn(C3CC3)c12 [HSR-903]
- logPS(obs) ([1]; rat, 20 mM self-inhibition ref Murata et al. 1999): −3.14 mL/g/s

SMILES: CC[C@]1(O)C[C@@H]2CN(CCc3c([nH]c4ccccc34)[C@@](C(=O)OC)(c3cc4c(cc3OC)N(C)[C@H]3[C@@](O)(C(=O)OC)[C@H](OC(C)=O)[C@]5(CC)C=CCN6CC[C@]43[C@@H]65)C2)C1 [vinblastine]
- logPo^PAMPA: −0.42
- logPS(obs) ([1]; rat ref Greig et al. 1990): −3.27 mL/g/s
- logPS(obs) ([1]; rat, PSC833 ref Cisternino et al. 2003): −3.36 mL/g/s
- logPS(obs) ([4]; mouse ref Murakami et al. 2000): −3.32 mL/g/s
- logPS(obs) ([4]; mouse, GF120918, footnote v ref Cisternino et al. 2004): −3.25 mL/g/s
- logPS(obs) ([4]; mouse, mdr1a(−/−)+GF120918 ref Cisternino et al. 2001): −3.12 mL/g/s

SMILES: CN1CCCCC1CCN1c2ccccc2Sc2ccc([S+](C)[O-])cc21 (stereo not drawn) [mesoridazine]
- logPS(obs) [1, 8]: −1.81 mL/g/s

SMILES: Cc1nc2n(c(=O)c1CCN1CCC(c3noc4cc(F)ccc34)CC1)CCCC2 [risperidone]
- logPo^PAMPA: −2.01

SMILES: CC(=O)CC(c1ccccc1)c1c(O)c2ccccc2oc1=O (stereo not drawn) [warfarin]
- logPS(obs) ([1]; rat, in vivo): −1.99 mL/g/s
- logPS(obs) ([4]; mouse, in vivo): −2.10 mL/g/s

SMILES: Cc1cc(=O)n(-c2ccccc2)n1C [antipyrine]
- logPo^PAMPA ([3]; PAMPA): −5.69

SMILES: C[C@]12CC[C@@H]3c4ccc(O)cc4CC[C@H]3[C@@H]1CC[C@@H]2O [estradiol]
- logPo^PAMPA: −3.08

SMILES: OCCO [ethylene glycol]
- logPS(obs) ([1]; rat, in vivo): −2.99 mL/g/s

SMILES: O=c1n(CCCN2CCN(c3cccc(Cl)c3)CC2)nc2ccccn12 [trazodone]
- logPS(obs) [1, 8]: −1.47 mL/g/s

SMILES: CNCCCC12CCC(c3ccccc31)c1ccccc12 [maprotiline]
- logPo^PAMPA [3, 7]: 1.99
- logPS(obs) [1, 6]: −1.37 mL/g/s

SMILES: O=C1Cc2cc(CCN3CCN(c4nsc5ccccc45)CC3)c(Cl)cc2N1 [ziprasidone]
- logPS(obs) [1, 8]: −1.73 mL/g/s

SMILES: CN1CCN2c3ncccc3Cc3ccccc3C2C1 (stereo not drawn) [mirtazapine]
- logPS(obs) [1, 8]: −1.39 mL/g/s

SMILES: COc1ccc([C@@H]2Sc3ccccc3N(CCN(C)C)C(=O)[C@@H]2OC(C)=O)cc1 [diltiazem]
- logPo^PAMPA ([3]; PAMPA intrinsic permeability, ref Avdeef et al. 2005): −1.33

SMILES: COc1cc2nc(N3CCN(C(=O)c4ccco4)CC3)nc(N)c2cc1OC [prazosin]
- logPo^PAMPA [3, 7]: −2.58

SMILES: CCCN1C[C@H](CSC)C[C@@H]2c3cccc4[nH]cc(c34)C[C@H]21 [pergolide]
- logPS(obs) [1, 8]: −1.00 mL/g/s

SMILES: OC[C@@H](O)[C@@H](O)CO [erythritol]
- logPS(obs) [1, 5]: −4.57 mL/g/s

SMILES: O=C(O)c1ccccc1O [salicylic acid]
- logPo^PAMPA ([3]; PAMPA intrinsic permeability, ref Ruell et al. 2003): −2.64

SMILES: CNS(=O)(=O)Cc1ccc2[nH]cc(CCN(C)C)c2c1 [sumatriptan]
- logPo^PAMPA ([3]; PAMPA intrinsic permeability, ref Avdeef 2005): −4.18
- logPS(obs) [1, 6]: −4.60 mL/g/s

SMILES: OCCOCCN1CCN(C(c2ccccc2)c2ccc(Cl)cc2)CC1 (stereo not drawn) [hydroxyzine]
- logPo^PAMPA: −1.50

SMILES: CCCC(C)(COC(N)=O)COC(N)=O [meprobamate]
- logPS(obs) [1, 8]: −3.09 mL/g/s

SMILES: Nc1nnc(-c2cccc(Cl)c2Cl)c(N)n1 [lamotrigine]
- logPS(obs) [1, 8]: −2.67 mL/g/s

SMILES: N[C@@H](Cc1ccccc1)C(=O)O [L-phenylalanine]
- logPo^PAMPA: −5.36
- logPS(obs) [1, 9]: −3.74 mL/g/s

SMILES: N[C@@H](Cc1ccc(N(CCCl)CCCl)cc1)C(=O)O [melphalin]
- logPS(obs) ([1]; rat, in vivo): −3.28 mL/g/s

SMILES: OCCN1CCN(CCCN2c3ccccc3Sc3ccc(Cl)cc32)CC1 [perphenazine]
- logPo^PAMPA: 0.81
- logPS(obs) [1, 6]: −1.27 mL/g/s

SMILES: COc1cc([C@@H]2c3cc4c(cc3[C@@H](O[C@@H]3O[C@@H]5CO[C@@H](C)O[C@H]5[C@H](O)[C@H]3O)[C@H]3COC(=O)[C@H]23)OCO4)cc(OC)c1O [etoposide]
- logPo^PAMPA: −5.22
- logPS(obs) ([4]; mouse, mdr1a(−/−), footnote x ref Cisternino et al. 2003): −3.91 mL/g/s

SMILES: O=C1C[C@@H](c2ccc(O)cc2)Oc2cc(O)cc(O)c21 [naringenin]
- logPo^PAMPA: −3.71
- logPS(obs) [1, 10]: −2.60 mL/g/s

SMILES: CN(C)C(=O)C(CCN1CCC(O)(c2ccc(Cl)cc2)CC1)(c1ccccc1)c1ccccc1 [loperamide]
- logPo^PAMPA: 0.15

SMILES: CC(C(=O)O)c1ccc(-c2ccccc2)c(F)c1 (stereo not drawn) [flurbiprofen]
- logPo^PAMPA [3, 7]: −1.78
- logPS(obs) [1, 11]: −1.80 mL/g/s

SMILES: CC(C)C[C@H](N)C(=O)O [L-leucine]
- logPS(obs) [1, 12]: −4.08 mL/g/s

SMILES: CN1CCN(CCCN2c3ccccc3Sc3ccc(C(F)(F)F)cc32)CC1 [trifluoperazine]
- logPS(obs) [1, 8]: −1.88 mL/g/s

SMILES: Cc1ncc2n1-c1ccc(Cl)cc1C(c1ccccc1F)=NC2 [midazolam]
- logPS(obs) ([1]; rat, in vivo): −1.17 mL/g/s

SMILES: CCOC(=O)C1(c2ccccc2)CCN(C)CC1 [meperidine]
- logPo^PAMPA: 0.79
- logPS(obs) ([4]; mouse, in vivo): −1.28 mL/g/s

SMILES: Nc1ccccc1C(=O)C[C@H](N)C(=O)O [L-kynurenine]
- logPS(obs) [1, 9]: −4.16 mL/g/s

SMILES: O=c1c(O)c(-c2ccc(O)c(O)c2)oc2cc(O)cc(O)c12 [quercetin]
- logPo^PAMPA: −4.77
- logPS(obs) [1, 10]: −3.50 mL/g/s

SMILES: CCC1(C)CC(=O)NC1=O (stereo not drawn) [ethosuximide]
- logPS(obs) [1, 8]: −2.47 mL/g/s

SMILES: C[C@]12CC[C@H]3[C@@H](CCC4=CC(=O)CC[C@@]43C)[C@@H]1CC[C@@H]2O [testosterone]
- logPo^PAMPA: −2.83

SMILES: CC(C)[C@H](N)C(=O)O [L-valine]
- logPS(obs) [1, 12]: −4.41 mL/g/s

SMILES: O=C(CCCN1CCC(O)(c2ccc(Cl)cc2)CC1)c1ccc(F)cc1 [haloperidol]
- logPo^PAMPA ([3]; PAMPA intrinsic permeability, ref Avdeef et al. 2006): 0.05

SMILES: CNCC[C@@H](Oc1ccccc1C)c1ccccc1 [atomoxetine]
- logPS(obs) [1, 8]: −1.39 mL/g/s

SMILES: Nc1c(O)cccc1C(=O)CC(N)C(=O)O (stereo not drawn) [3-hydroxykynurenine]
- logPS(obs) ([1]; rat, Kd (nonsaturable component) ref Fukui et al. 1991): −4.49 mL/g/s

SMILES: NNCCc1ccccc1 [phenelzine]
- logPS(obs) [1, 8]: −2.67 mL/g/s

SMILES: COc1ccc(C(CN(C)C)C2(O)CCCCC2)cc1 (stereo not drawn) [venlafaxine]
- logPS(obs) ([1]; rat, in vivo): −1.98 mL/g/s

SMILES: COc1ccc2c(c1)c(CC(=O)O)c(C)n2C(=O)c1ccc(Cl)cc1 [indomethacin]
- logPo^PAMPA ([3]; PAMPA intrinsic permeability, ref Avdeef et al. 2004, Ruell et al. 2004): −1.65
- logPS(obs) [1, 11]: −2.19 mL/g/s

SMILES: NC1(C(=O)O)CCCCC1 [1-aminocyclohexanecarboxylic acid]
- logPS(obs) ([1]; rat, Kd (nonsaturable component) ref Aoyagi et al. 1988): −4.00 mL/g/s

SMILES: Oc1ccc2c3c1O[C@H]1c4[nH]c5ccccc5c4C[C@@]4(O)[C@@H](C2)N(CC2CC2)CC[C@]314 [naltrindole]
- logPo^PAMPA: −0.94
- logPS(obs) ([4]; mouse, in vivo): −1.98 mL/g/s

SMILES: CCC12CCN(CC3(O)CC3)C(Cc3ccc(O)cc31)C2(C)C (stereo not drawn) [bremazocine]
- logPo^PAMPA: −1.49
- logPS(obs) ([4]; mouse, in vivo): −1.89 mL/g/s

SMILES: OCCOCCN1CCN(C2=Nc3ccccc3Sc3ccccc32)CC1 [quetiapine]
- logPo^PAMPA: −1.85
- logPS(obs) [1, 6]: −1.33 mL/g/s

SMILES: CN(C)CCc1c[nH]c2ccc(Cn3cncn3)cc12 [rizatriptan]
- logPS(obs) [1, 8]: −3.76 mL/g/s

SMILES: Clc1ccc2c(c1)C(N1CCNCC1)=Nc1ccccc1O2 [amoxapine]
- logPS(obs) [1, 8]: −1.18 mL/g/s

SMILES: NC(N)=S [thiourea]
- logPS(obs) [1, 5]: −3.36 mL/g/s

SMILES: CSc1ccc2c(c1)N(CCC1CCCCN1C)c1ccccc1S2 (stereo not drawn) [thioridazine]
- logPo^PAMPA: 1.81
- logPS(obs) [1, 6]: −1.37 mL/g/s
